Values of other authors, collected in article PMC9516332 (Frontiers in Oncology, 2022).

Columns and labels:
[1] = molecular target: panel of 255 wild-type kinases (Homo sapiens, UniProt Q00535); conditions: CDK5/p25 kinase assay; 1 µmol/L single concentration; ref DOI: 10.1371/journal.pone.0092146; cited from earlier work
[2] = molecular target: panel of 255 wild-type kinases (Homo sapiens, UniProt Q96GD4); conditions: AurB kinase assay; 1 µmol/L single concentration; ref DOI: 10.1371/journal.pone.0092146; cited from earlier work
[3] = molecular target: panel of 255 wild-type kinases (Homo sapiens, UniProt P07948); conditions: kinase LYNa; 1 µmol/L single concentration; ref DOI: 10.1371/journal.pone.0092146; cited from earlier work
[4] = molecular target: panel of 255 wild-type kinases (Homo sapiens, UniProt Q8IU85); conditions: CaMK1δ kinase assay; 1 µmol/L single concentration; ref DOI: 10.1371/journal.pone.0092146; cited from earlier work
[5] = molecular target: panel of 255 wild-type kinases (Homo sapiens, UniProt O00311); conditions: CDC7/ASK kinase assay; 1 µmol/L single concentration; ref DOI: 10.1371/journal.pone.0092146; cited from earlier work
[6] = molecular target: T1, panel of 255 wild-type kinases (Homo sapiens, UniProt Q15139); conditions: kinase PKD1; 1 µmol/L single concentration; ref DOI: 10.1371/journal.pone.0092146; cited from earlier work
T1 sequence (Q15139 1-912): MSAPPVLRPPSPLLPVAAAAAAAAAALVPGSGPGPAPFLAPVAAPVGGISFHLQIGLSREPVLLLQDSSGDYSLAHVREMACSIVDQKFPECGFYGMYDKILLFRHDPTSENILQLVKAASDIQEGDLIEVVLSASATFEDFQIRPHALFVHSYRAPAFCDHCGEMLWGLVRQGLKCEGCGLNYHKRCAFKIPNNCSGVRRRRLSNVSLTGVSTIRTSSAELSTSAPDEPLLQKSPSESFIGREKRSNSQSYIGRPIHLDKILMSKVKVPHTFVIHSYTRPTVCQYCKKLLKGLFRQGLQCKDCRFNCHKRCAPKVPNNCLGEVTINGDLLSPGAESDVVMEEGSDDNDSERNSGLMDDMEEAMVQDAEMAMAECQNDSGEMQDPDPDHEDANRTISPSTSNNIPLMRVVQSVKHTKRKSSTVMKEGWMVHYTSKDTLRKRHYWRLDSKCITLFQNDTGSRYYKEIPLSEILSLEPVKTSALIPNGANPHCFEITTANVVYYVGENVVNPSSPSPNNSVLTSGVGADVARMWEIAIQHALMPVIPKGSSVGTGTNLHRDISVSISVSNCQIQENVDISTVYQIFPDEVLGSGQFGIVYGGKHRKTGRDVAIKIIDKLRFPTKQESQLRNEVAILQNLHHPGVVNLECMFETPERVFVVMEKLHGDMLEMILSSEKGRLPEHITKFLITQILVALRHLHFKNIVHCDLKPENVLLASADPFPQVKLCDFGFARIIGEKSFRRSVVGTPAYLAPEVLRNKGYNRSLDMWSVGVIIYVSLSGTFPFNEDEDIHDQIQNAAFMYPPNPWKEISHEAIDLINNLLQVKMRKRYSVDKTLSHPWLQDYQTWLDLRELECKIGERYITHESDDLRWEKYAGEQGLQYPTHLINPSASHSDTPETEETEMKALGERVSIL

[7] = molecular target: panel of 255 wild-type kinases (Homo sapiens, UniProt Q04912); conditions: kinase RON; 1 µmol/L single concentration; ref DOI: 10.1371/journal.pone.0092146; cited from earlier work
[8] = molecular target: panel of 255 wild-type kinases (Homo sapiens, UniProt P05771); conditions: kinase PKCβ1; 1 µmol/L single concentration; ref DOI: 10.1371/journal.pone.0092146; cited from earlier work
[9] = molecular target: panel of 255 wild-type kinases (Homo sapiens, UniProt P14616); conditions: kinase IRR; 1 µmol/L single concentration; ref DOI: 10.1371/journal.pone.0092146; cited from earlier work
[10] = molecular target: panel of 255 wild-type kinases (Homo sapiens, UniProt Q13557); conditions: CaMK2δ kinase assay; 1 µmol/L single concentration; ref DOI: 10.1371/journal.pone.0092146; cited from earlier work
[11] = molecular target: panel of 255 wild-type kinases (Homo sapiens, UniProt P68400); conditions: kinase CK2α1/β; 1 µmol/L single concentration; ref DOI: 10.1371/journal.pone.0092146; cited from earlier work
[12] = molecular target: panel of 255 wild-type kinases (Homo sapiens, UniProt P09619); conditions: kinase PDGFRβ; 1 µmol/L single concentration; ref DOI: 10.1371/journal.pone.0092146; cited from earlier work
[13] = molecular target: panel of 255 wild-type kinases (Homo sapiens, UniProt P24941); conditions: 1 µmol/L single concentration, ref DOI: 10.1371/journal.pone.0092146, cited from earlier work
[14] = molecular target: panel of 255 wild-type kinases (Homo sapiens, UniProt Q08345); conditions: kinase DDR1; 1 µmol/L single concentration; ref DOI: 10.1371/journal.pone.0092146; cited from earlier work
[15] = molecular target: panel of 255 wild-type kinases (Homo sapiens, UniProt P49840); conditions: kinase GSK3α; 1 µmol/L single concentration; ref DOI: 10.1371/journal.pone.0092146; cited from earlier work

CCCS(=O)(=O)Nc1ccc(F)c(C(=O)c2c[nH]c3ncc(-c4ccc(Cl)cc4)cc23)c1F [vemurafenib]
%-inhibition CDK5/p25 [1]: 5% | %-inhibition AurB [2]: 6% | %-inhibition at 1 µmol/L, LYNa [3]: 73% | %-inhibition CaMK1δ [4]: -7% | %-inhibition CDC7/ASK [5]: -7% | %-inhibition at 1 µmol/L, PKD1 [6]: 43% | %-inhibition at 1 µmol/L, RON [7]: -2% | %-inhibition at 1 µmol/L, PKCβ1 [8]: -3.81% | %-inhibition at 1 µmol/L, IRR [9]: 21% | %-inhibition CaMK2δ [10]: -0.235% | %-inhibition at 1 µmol/L, CK2α1/β [11]: -5.39% | %-inhibition at 1 µmol/L, PDGFRβ [12]: 33% | %-inhibition CDK2/CycA2 ([13]; CDK2/CycA2 kinase assay): -3% | %-inhibition CDK2/CycE1 ([13]; CDK2/CycE1 kinase assay): -5% | %-inhibition at 1 µmol/L, DDR1 [14]: 52% | %-inhibition at 1 µmol/L, GSK3α [15]: 25%
